Results taken from patent publication US11512073B2, “Benzimidazole derivatives, pharmaceutical composition comprising the same, and use thereof” (Chongqing University of Arts and Sciences, priority 2020, dated 2022).

Key:
Type in all cases: cell-based, Human
TNBC cells [1] = experiment: Cell counting assay with microscope; settings: 48 h
Experimental: FIG. 2A: cell viability was measured with the MTT assay. MDA-MB-231 and MDA-MB-468 cells were exposed to the indicated concentrations of compound 7a for 24, 48 and 72 h. FIGS. 2B and 2C: cell morphology and cell count of MDA-MB-231 and MDA-MB-468 cells were captured with microscope after treating with the indicated concentrations of compound 7a for 48 h. These cells were visualized with the images and quantitated by histogram, Scale bar, 100 μm. FIGS. 2D and 2E: colony formation assay was performed to evaluate TNBC growth in vitro after treatment with the indicated concentrations of compound 7a for 14 days. The colonies were visualized with the images and quantitated by histogram.

TNBC cells [2] = experiment: Ki67-staining immunofluorescence; settings: 48 h, versus controls
Experimental: Cells were plated on glass coverslips in 24-well plates prior to treatment. After being exposed to different doses of compound 7a for 48 h, cells were washed with PBS for three times, fixed with 4% paraformaldehyde-PBS for 30 min, and then followed by permeabilization with 0.1% Triton X-100 for 10 min. Next, the samples were blocked with QuickBlock Blocking Buffer for Immunol Staining (Beyotime) for 30 min at 37° C., and incubated with anti-Ki67 (1:250), anti-LC3B antibody (1:250), anti-SQSTM1 antibody (1:250) or anti-γH2AX (1:250) overnight at 4° C. After washing with PBS three times, the stained cells were incubated with Alexa Fluor-conjugated secondary antibodies (1:2000) for 1 hour at room temperature. Moreover, 1 mg/mL DAPI dissolved in PBS were employed to label nuclei (30 min). Images were captured with a High Content analysis system (Perkinelmer, MA, USA).

[3] = tested on: MDA-MB-231 and MDA-MB-468 cells; experiment: Immunoblotting of cell cycle, apoptosis, autophagy and DDR proteins
Experimental: MDA-MB-231 and MDA-MB-468 cells were treated with the compound 7a (0, 5, 10 and 20 μmol/L) for 48 h, total protein was extracted using RIPA buffer (Beyotime, Shanghai, China) supplemented with protease/phosphatase inhibitor cocktail (Roche, Mannheim, Germany) at 4° C. for 30 min. The protein concentration was quantified by the BCA protein assay kit (Beyotime). Protein samples (50 μg) were separated by SDS-PAGE with appropriate gel concentration and subsequent electrophoretically transferred onto PVDF membranes (Millipore Corporation, MA, USA). After blocking with 5% BSA for 2 h at ambient temperature, the membranes sections were incubated gently with the indicated primary antibodies overnight at 4° C. and washed with TBST for 5×5 minutes. Subsequently, the membranes were then incubated with corresponding IRDye 800CW goat anti-mouse IgG (H+L) or IRDye 680LT donkey anti-rabbit IgG (H+L) secondary antibody for 1 h. The objective protein signal was obtained using an odyssey two-color infrared fluorescence imaging system (Li-cor, NE, USA). For immunoprecipitation, harvested cells were lysed in ice-cold NP-40 buffer including 50 mM Tris-HCl (pH 7.4), 150 mM NaCl, 0.5% NP-40, 1 mM Na3VO4, 50 mM NaF and protease inhibitor cocktail (Roche). Lysate was centrifuged at 12,000×g for 20 min at 4° C. The supernatant was incubated with anti-HA at 4° C. overnight, followed by incubation with Protein-A/G beads overnight (Beyotime). The proteins were washed six times with ice-cold NP-40 buffer and eluted with SDS loading buffer containing mercaptoethanol by boiling for 10 min.

Question: Which results are given for `O=C(NC1CCCCC1)c1[nH]cnc1-c1nc2ccccc2[nH]1` [Compound 7a]?
Answer: proliferation by cell count (TNBC cells [1]): significantly inhibited proliferation of TNBC cells; rate of Ki67-positive cells (TNBC cells [2]): notably reduced rate of Ki67-positive cells; p62 level ([3]; TNBC cells): resulted in a p62 accumulation; expression of BRCA2, RAD51 and RNF8 ([3]; immunoblotting): significantly reduced; levels of BRCA2 and RAD51 ([3]; immunoblotting): dramatically decreased levels of both proteins in a dose-dependent manner; phosphorylation of ATM, NBS1 and SMC1 ([3]; immunoblotting): activated; p62 in nuclear and cytoplasmic proteins ([3]; immunoblotting of fractions): drastic p62 increase in the nucleus and cytoplasm in a dose-dependent manner; P21 and phosphorylation levels of CHK1 (Serine 345) and CHK2 (Threonine 68) ([3]; immunoblotting, 48 h): increased P21 and the phosphorylation levels of CHK1 (Serine 345) and CHK2 (Threonine 68) in a dose-dependent manner; anti-apoptotic protein Bcl-2 ([3]; immunoblotting, 48 h): decrease of anti-apoptotic protein Bcl-2; cytochrome c, cleaved caspase-3, cleaved caspase-9 and cleaved PARP ([3]; immunoblotting, 48 h): increased in a dose-dependent manner; levels of Cyclin A, Cyclin B, CDK1 and CDK2 ([3]; immunoblotting, 48 h): decreased the levels of Cyclin A, Cyclin B, CDK1 and CDK2; pro-apoptotic proteins Bak, Bim and Bax ([3]; immunoblotting, 48 h): elevated in a dose-dependent manner; γH2AX level ([3]; immunoblotting, dose-dependent): significantly increased; conversion to LC3B-II ([3]; immunofluorescence and western blotting, dose- and time-dependent): significantly induced
